For the assay, the target named is native CB1 receptors (Rattus norvegicus, UniProt P20272). The experiment in a line: CB1 receptor rat binding assay ([3H]SR141716A, rat brain membranes). The settings on record: rat brain membranes.
Where [1] appears, read: [3H]SR141716A, read-out: Binding rat pKi (converted).

Where two headings read alike, the source gives them in different places.

Experimental findings from patent US20080090805A1, “CB-1 MODULATING COMPOUNDS AND THEIR USE” (ACADIA PHARMACEUTICALS INC., priority 2005, published 2008) are described below.

Chain of native CB1 receptors (P20272 whole entry): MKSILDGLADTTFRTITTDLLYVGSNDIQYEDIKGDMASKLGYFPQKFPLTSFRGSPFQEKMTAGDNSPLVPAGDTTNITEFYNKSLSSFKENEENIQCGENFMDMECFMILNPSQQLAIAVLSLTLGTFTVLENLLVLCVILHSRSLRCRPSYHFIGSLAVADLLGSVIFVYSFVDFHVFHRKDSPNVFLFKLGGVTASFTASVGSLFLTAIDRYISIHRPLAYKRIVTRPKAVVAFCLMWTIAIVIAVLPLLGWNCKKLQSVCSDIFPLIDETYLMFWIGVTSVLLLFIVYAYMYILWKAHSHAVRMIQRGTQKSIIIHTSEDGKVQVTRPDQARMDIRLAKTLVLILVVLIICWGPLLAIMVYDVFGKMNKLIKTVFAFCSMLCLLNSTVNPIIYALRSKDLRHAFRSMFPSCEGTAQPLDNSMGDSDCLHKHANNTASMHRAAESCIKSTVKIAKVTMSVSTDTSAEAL

For the molecule `Cc1ccc(CNC(=O)c2ccc3c(c2)N=C(c2ccc(Cl)s2)c2ccccc2S3)o1` [drawing 1223], the “Binding rat Inh %” value ([3H]SR141716A) was determined as 106%. Under setting [1], the Ki is 0.000501 µM.

In the case of `Cc1ccsc1C1=Nc2cc(C(=O)NC(C)C)ccc2Sc2ccccc21` [drawing 1478], the “Binding rat Inh %” value ([3H]SR141716A) is reported as 60%. Under setting [1], the Ki was 0.0631 µM.

On to `O=C(NCc1ccco1)c1ccc2c(c1)N=C(c1ccc(F)cc1)c1ccccc1S2` [drawing 1370], for which the “Binding rat Inh %” value ([3H]SR141716A) is reported as 103%. Besides, the Ki under setting [1] is 0.00501 µM.

Take `O=C(NCc1ccc(F)cc1)c1ccc2c(c1)N=C(c1cccc(Cl)c1)c1ccccc1S2` [drawing 1391]: under setting [1], the Ki was 0.00501 µM.

In the case of `O=C(NCCC(F)(F)F)c1ccc2c(c1)N=C(c1cccc(F)c1)c1ccccc1S2` [drawing 1337], the “Binding rat Inh %” value ([3H]SR141716A) is recorded as 108%. Also, the Ki under setting [1] was 0.00398 µM.

Regarding `O=C(NCc1cccc(Cl)c1)c1ccc2c(c1)N=C(N1CCC(F)CC1)c1ccccc1S2` [drawing 1523], the Ki under setting [1] is 0.01 µM.

On to `CC(C)CNC(=O)c1ccc2c(c1)N=C(c1ccc(Cl)cc1)c1ccc(Cl)cc1S2` [drawing 1525], for which, for the setting “[3H]SR141716A”, the “Binding rat Inh %” value was 86%. The Ki under setting [1] was 0.01 µM.

For the molecule `Cc1ccsc1C1=Nc2cc(C(=O)NCC(C)C)ccc2Sc2ccccc21` [drawing 1516], the “Binding rat Inh %” value ([3H]SR141716A) worked out at 98%. Further, under setting [1], the Ki is 0.01 µM.

`Cc1ccsc1C1=Nc2cc(C(=O)NCCc3cccnc3)ccc2Sc2ccccc21` [drawing 1521]: where the note is “[3H]SR141716A”, the “Binding rat Inh %” value was determined as 93%. In addition, the Ki under setting [1] was 0.0794 µM.

`Cc1csc(CNC(=O)c2ccc3c(c2)N=C(c2cccc(F)c2)c2ccccc2S3)c1` [drawing 1234]: the “Binding rat Inh %” value ([3H]SR141716A) stood at 89%. Besides, the Ki under setting [1] was 0.000794 µM.

Consider `O=C(NCc1cccnc1)c1ccc2c(c1)N=C(c1cccc(F)c1)c1ccccc1S2` [drawing 1221], for which the “Binding rat Inh %” value ([3H]SR141716A) was determined as 84%. In addition, under setting [1], the Ki was 0.0158 µM.

On to `O=C(NCCc1ccc(Cl)cc1)c1ccc2c(c1)N=C(c1ccc(F)cc1)c1ccccc1S2` [drawing 1367], for which the Ki under setting [1] was 0.00398 µM.

As for `Cc1ccsc1C1=Nc2cc(C(=O)NN3[C@H](C)CCC[C@@H]3C)ccc2Sc2ccccc21` [drawing 1530], where the note is “[3H]SR141716A”, the “Binding rat Inh %” value stood at 65%. In addition, the Ki under setting [1] was 0.0794 µM.

For `O=C(NCc1cccc(Cl)c1)c1ccc2c(c1)N=C(c1ccc(Cl)cc1)c1cc(F)ccc1S2` [drawing 1456], under setting [1], the Ki was 0.00794 µM.

As to `O=C(NCCc1cccnc1)c1ccc2c(c1)N=C(c1ccc(Cl)c(Cl)c1)c1ccccc1S2` [drawing 1407], the “Binding rat Inh %” value ([3H]SR141716A) was 103%. For the same molecule, the Ki under setting [1] was 0.00631 µM.

`O=C(NCCCc1ccccc1)c1ccc2c(c1)N=C(c1ccc(Cl)cc1)c1ccccc1S2` [drawing 1434]: under setting [1], the Ki is 0.00631 µM.

On to `O=C(NCc1ccccn1)c1ccc2c(c1)N=C(c1ccc(Cl)cc1)c1ccccc1S2` [drawing 1270], for which the “Binding rat Inh %” value ([3H]SR141716A) is reported as 112%. Besides, under setting [1], the Ki is 0.02 µM.

Consider `Cc1ccsc1C1=Nc2cc(C(=O)NC3CCC(F)(F)CC3)ccc2Sc2ccccc21` [drawing 1265], for which the “Binding rat Inh %” value ([3H]SR141716A) was determined as 93%. The Ki under setting [1] is 0.00158 µM.

On to `O=C(NCCc1ccccn1)c1ccc2c(c1)N=C(c1cccc(Cl)c1)c1ccccc1S2` [drawing 1475], for which the “Binding rat Inh %” value ([3H]SR141716A) amounted to 76%. Further, under setting [1], the Ki was 0.0631 µM.

As to `O=C(Cc1ccccc1)NNC(=O)c1ccc2c(c1)N=C(c1ccc(F)cc1)c1ccccc1S2` [drawing 1190], under “[3H]SR141716A”, the “Binding rat Inh %” value was found to be 65%. In addition, the Ki under setting [1] was 0.0126 µM.

As for `O=C(NCc1ccc(F)cc1)c1ccc2c(c1)N=C(c1ccc(Cl)cc1)c1ccccc1S2` [drawing 1287], under setting [1], the Ki is 0.002 µM.

Regarding `CCCCNC(=O)c1ccc2c(c1)N=C(c1ccc(Cl)cn1)c1ccccc1S2` [drawing 1501], the “Binding rat Inh %” value ([3H]SR141716A) is 98%. Moreover, under setting [1], the Ki is 0.01 µM.

In the case of `O=C(NN1CCCCC1)c1ccc2c(c1)N=C(c1ccc(Cl)cc1)c1ccccc1S2` [drawing 1424], the “Binding rat Inh %” value ([3H]SR141716A) worked out at 60%. Also, the Ki under setting [1] is 0.00631 µM.

As for `NS(=O)(=O)c1ccc(CNC(=O)c2ccc3c(c2)N=C(c2ccc(F)cc2)c2ccccc2S3)cc1` [drawing 1454], the “Binding rat Inh %” value ([3H]SR141716A) turned out to be 72%. The Ki under setting [1] was 0.0501 µM.

Turning to `CCCCNC(=O)c1cc2c(cc1C)Sc1ccccc1C(c1ccc(Cl)cc1)=N2` [drawing 1243], the “Binding rat Inh %” value ([3H]SR141716A) is recorded as 119%. Also, under setting [1], the Ki is 0.0158 µM.

For the molecule `O=C(NNCC(F)(F)F)c1ccc2c(c1)N=C(c1cccc(Cl)c1)c1ccccc1S2` [drawing 1467], the “Binding rat Inh %” value ([3H]SR141716A) is on record as 97%. For the same molecule, under setting [1], the Ki is 0.0501 µM.

Take `CCCCNC(=O)c1ccc2c(c1)N=C(c1ccc(OC)cc1)c1ccccc1S2` [drawing 1532]: the “Binding rat Inh %” value ([3H]SR141716A) stood at 82%. Also, the Ki under setting [1] was 0.01 µM.

Take `O=C(NCCCc1ccccc1)c1ccc2c(c1)N=C(c1ccccc1)c1ccccc1S2` [drawing 1450]: the Ki under setting [1] is 0.00794 µM.

Consider `CCN(CCNC(=O)c1ccc2c(c1)N=C(c1ccccc1F)c1ccccc1S2)c1ccccc1` [drawing 1302], for which the Ki under setting [1] is 0.02 µM.

Take `O=C(NCc1ccccc1Br)c1ccc2c(c1)N=C(c1ccc(Cl)cc1)c1ccccc1S2` [drawing 1388]: the Ki under setting [1] is 0.0316 µM.

For the molecule `O=C(NCCc1ccc(Cl)cc1)c1ccc2c(c1)N=C(N1CCCCC1)c1ccccc1S2` [drawing 1345], the Ki under setting [1] was 0.00398 µM.

Turning to `O=C(NN1CCCCCC1)c1ccc2c(c1)N=C(c1ccc(Cl)cc1F)c1ccccc1S2` [drawing 1386], the “Binding rat Inh %” value ([3H]SR141716A) came out at 84%. Moreover, the Ki under setting [1] was 0.00501 µM.

Regarding `CC(C)CNC(=O)c1ccc2c(c1)N=C(c1ccc(Cl)cn1)c1ccc(Cl)cc1S2` [drawing 1506], the “Binding rat Inh %” value ([3H]SR141716A) is on record as 90%. Also, the Ki under setting [1] is 0.0794 µM.

Regarding `CCCCNC(=O)c1ccc2c(c1)N=C(c1ccc(Cl)cc1)c1ccccc1[S+]2[O-]` (stereo not drawn) [drawing 1205], the Ki under setting [1] was 0.0126 µM.

Take `O=C(NCc1ccccc1)c1ccc2c(c1)N=C(c1ccccc1)c1ccccc1S2` [drawing 1219]: under setting [1], the Ki is 0.0158 µM.

Consider `Cc1cccc(C2=Nc3cc(C(=O)NC4CCC(F)(F)CC4)ccc3Sc3ccccc32)n1` [drawing 1425], for which, where the note is “[3H]SR141716A”, the “Binding rat Inh %” value was determined as 90%. For the same molecule, under setting [1], the Ki was 0.00631 µM.

For `O=C(NCc1ccc(Cl)cc1Cl)c1ccc2c(c1)N=C(c1ccc(F)cc1)c1ccccc1S2` [drawing 1211], the Ki under setting [1] is 0.0126 µM.

Consider `CCCNC(=O)c1ccc2c(c1)N=C(c1sccc1C)c1ccccc1S2` [drawing 1387], for which the “Binding rat Inh %” value ([3H]SR141716A) is on record as 64%. Also, the Ki under setting [1] is 0.0316 µM.

Regarding `O=C(NCCCc1ccccc1)c1ccc2c(c1)N=C(c1ccccc1F)c1ccccc1S2` [drawing 1206], under setting [1], the Ki was 0.0126 µM.

Turning to `CC(C)CNC(=O)c1ccc2c(c1)N=C(c1ccc(Cl)s1)c1ccccc1S2` [drawing 1201], the “Binding rat pKi” value ([3H]SR141716A) is reported as 8.6.

For `CCCCNC(=O)c1ccc2c(c1)N=C(c1ccc(Br)cn1)c1ccccc1S2` [drawing 1378], for the setting “[3H]SR141716A”, the “Binding rat Inh %” value amounted to 83%. The Ki under setting [1] is 0.00501 µM.

Turning to `O=C(NN1CCCCCC1)c1ccc2c(c1)N=C(c1ccc(F)cc1)c1ccccc1S2` [drawing 1433], under “[3H]SR141716A”, the “Binding rat Inh %” value is 112%. For the same molecule, the Ki under setting [1] was 0.00631 µM.

With `O=C(NCc1ccccc1Cl)c1ccc2c(c1)N=C(c1ccccc1F)c1ccccc1S2` [drawing 1413], the Ki under setting [1] was 0.0398 µM.

Consider `CCCC1=Nc2cc(C(=O)NCCc3cc(OC)ccc3OC)ccc2Sc2ccccc21` [drawing 1549], for which the Ki under setting [1] is 0.1 µM.

Consider `O=C(NC1CCC(F)(F)CC1)c1ccc2c(c1)N=C(c1ccc(Cl)s1)c1ccccc1S2` [drawing 1224], for which the “Binding rat Inh %” value ([3H]SR141716A) worked out at 107%. For the same molecule, under setting [1], the Ki is 0.000631 µM.

Turning to `O=C(NN1CCCCC1)c1ccc2c(c1)N=C(c1cccc(F)c1)c1ccccc1S2` [drawing 1374], the “Binding rat Inh %” value ([3H]SR141716A) is 94%. Also, the Ki under setting [1] is 0.0316 µM.

For the molecule `O=C(NCc1cccs1)c1ccc2c(c1)N=C(c1ccc(Cl)s1)c1ccccc1S2` [drawing 1256], the “Binding rat Inh %” value ([3H]SR141716A) is recorded as 98%. Also, the Ki under setting [1] is 0.00126 µM.

As for `O=C(NN1CCCCC1)c1ccc2c(c1)N=C(c1ccc(Cl)c(Cl)c1)c1ccccc1S2` [drawing 1305], the “Binding rat Inh %” value ([3H]SR141716A) is 96%. Besides, the Ki under setting [1] is 0.00251 µM.

`CCN(CCNC(=O)c1ccc2c(c1)N=C(c1ccc(Cl)cc1)c1ccccc1S2)c1ccccc1` [drawing 1489]: the Ki under setting [1] was 0.01 µM.

Consider `O=C(NCCc1ccc(Cl)cc1)c1ccc2c(c1)N=C(c1ccccc1F)c1ccccc1S2` [drawing 1228], for which the Ki under setting [1] is 0.0158 µM.

`O=C(NCc1ccccc1Cl)c1ccc2c(c1)N=C(c1cccc(Cl)c1)c1ccccc1S2` [drawing 1415]: the Ki under setting [1] was 0.00631 µM.

Consider `CC(C)CNC(=O)c1ccc2c(c1)N=C(c1ccsc1)c1ccccc1S2` [drawing 1303], for which the “Binding rat Inh %” value ([3H]SR141716A) stood at 90%. The Ki under setting [1] is 0.00251 µM.

On to `O=C(NN1CCCC1)c1ccc2c(c1)N=C(c1ccc(Cl)cc1)c1ccccc1S2` [drawing 1502], for which the “Binding rat Inh %” value ([3H]SR141716A) is 63%. In addition, the Ki under setting [1] is 0.0631 µM.

Consider `O=C(NCCc1ccc(Cl)cc1)c1ccc2c(c1)N=C(N1CCC(F)CC1)c1ccccc1S2` [drawing 1195], for which the Ki under setting [1] was 0.0126 µM.

`CCCCNC(=O)c1ccc2c(c1)N=C(C1CCCCC1)c1ccccc1S2` [drawing 1417]: under setting [1], the Ki was 0.00631 µM.

Regarding `COc1ccc(C2=Nc3cc(C(=O)NCc4cccnc4)ccc3Sc3ccccc32)cc1` [drawing 1438], where the note is “[3H]SR141716A”, the “Binding rat Inh %” value is recorded as 60%. For the same molecule, under setting [1], the Ki was 0.0501 µM.

In the case of `O=C(NCc1ccc(Cl)cc1Cl)c1ccc2c(c1)N=C(c1ccccc1)c1ccccc1S2` [drawing 1204], under setting [1], the Ki was 0.0126 µM.

For `O=C(NCc1cccnc1)c1ccc2c(c1)N=C(c1ccc(Cl)c(Cl)c1)c1ccccc1S2` [drawing 1401], the “Binding rat Inh %” value ([3H]SR141716A) stood at 102%. The Ki under setting [1] is 0.00631 µM.

On to `CCN(CCNC(=O)c1ccc2c(c1)N=C(c1ccccc1)c1ccccc1S2)c1ccccc1` [drawing 1245], for which, under setting [1], the Ki was 0.0158 µM.

On to `O=C(NCc1cccc(Cl)c1)c1ccc2c(c1)N=C(C1CCCCC1)c1cc(F)ccc1S2`, for which, under setting [1], the Ki was 0.01 µM.

For `Cc1ccc(N2CCN(C(=O)c3ccc4c(c3)N=C(Cl)c3ccccc3S4)CC2)c(C)c1` [Example 12], the Ki (3 nM [3H]SR141716A, read-out: Rat Brain pKi (converted)) is 0.251 µM.
